Reference: ChEMBL document CHEMBL4627264, “Synthesis and evaluation of novel radioiodinated PSMA targeting ligands for potential radiotherapy of prostate cancer” (Bioorg Med Chem, 2020)
Blank lines part the entries; values can stand above or below the molecule they belong to. Calls of active or inactive are those of the source. The rule behind the calls is not given here.

Key:
[1] = Drug uptake in human PC3-PIP cells at 0.2 nM incubated prior to compound washout measured using 125I-labelled compound by gamma counter analysis; format: ADME, cell-based; details: 0.0002 µM, TDE = time-dependent effect
[2] = Drug internalization in human PC3-PIP cells at 0.2 nM incubated for 2 hrs followed by compound washout measured using 125I-labelled compound by gamma counter analysis; format: ADME, cell-based; details: 0.0002 µM
[3] = Drug uptake in liver of CD-1 nude mouse xenografted with PC3-PIP cells at 6 nM to 9 nM, iv measured at 24 hrs using 125I-labelled compound by gamma counter analysis; format: ADME, organism-based; details: in vivo, 0.006 µM
[4] = target: T1, Glutamate carboxypeptidase 2 (Homo sapiens, UniProt Q04609); assay: Binding affinity to PSMA in human PC3-PIP cells assessed as drug uptake per 10^6 cells at 0.2 nM incubated for 2 hrs followed by compound washout measured using 125I-labelled compound by gamma counter analysis; format: ADME, cell-based; details: 0.0002 µM
Target sequence in this assay (Q04609 whole entry): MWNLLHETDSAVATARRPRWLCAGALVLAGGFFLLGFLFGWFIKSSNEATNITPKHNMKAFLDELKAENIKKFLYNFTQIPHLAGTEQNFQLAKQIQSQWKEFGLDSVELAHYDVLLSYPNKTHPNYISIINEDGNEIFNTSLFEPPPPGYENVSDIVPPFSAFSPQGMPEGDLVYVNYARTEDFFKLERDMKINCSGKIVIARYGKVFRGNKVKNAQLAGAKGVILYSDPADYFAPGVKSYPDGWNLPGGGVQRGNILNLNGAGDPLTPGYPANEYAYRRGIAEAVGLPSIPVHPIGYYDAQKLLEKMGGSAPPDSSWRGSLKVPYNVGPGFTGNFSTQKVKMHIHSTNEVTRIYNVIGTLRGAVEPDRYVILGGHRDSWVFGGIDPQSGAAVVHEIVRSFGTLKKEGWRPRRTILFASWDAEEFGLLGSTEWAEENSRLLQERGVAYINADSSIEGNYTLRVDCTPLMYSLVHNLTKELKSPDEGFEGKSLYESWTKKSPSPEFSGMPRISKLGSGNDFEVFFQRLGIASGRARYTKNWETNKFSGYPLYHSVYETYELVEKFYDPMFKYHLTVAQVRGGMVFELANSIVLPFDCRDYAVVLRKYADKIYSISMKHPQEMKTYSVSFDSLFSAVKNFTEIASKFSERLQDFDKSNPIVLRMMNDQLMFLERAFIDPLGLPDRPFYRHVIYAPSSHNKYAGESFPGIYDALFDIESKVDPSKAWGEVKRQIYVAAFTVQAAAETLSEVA

[5] = Drug uptake in liver of CD-1 nude mouse xenografted with PC3-PIP cells at 6 nM to 9 nM, iv measured at 1 hr using 125I-labelled compound by gamma counter analysis; format: ADME, organism-based; details: in vivo, 0.006 µM
[6] = Drug uptake in human PC3-PIP cells at 0.2 nM incubated for 1 hr in presence of PSMA inhibitor PSMA-617 measured using 125I-labelled compound by gamma counter analysis; format: ADME, cell-based; details: 0.0002 µM
[7] = Drug uptake in liver of CD-1 nude mouse xenografted with PC3-PIP cells at 6 nM to 9 nM, iv measured at 4 hrs using 125I-labelled compound by gamma counter analysis; format: ADME, organism-based; details: in vivo, 0.006 µM
[8] = Drug internalization in human PC3-PIP cells at 0.2 nM incubated for 1 hr followed by compound washout measured using 125I-labelled compound by gamma counter analysis; format: ADME, cell-based; details: 0.0002 µM
[9] = target: T1, Glutamate carboxypeptidase 2; assay: Binding affinity to PSMA in human PC3-PIP cells assessed as drug uptake per 10^6 cells at 0.2 nM incubated for 1 hr followed by compound washout measured using 125I-labelled compound by gamma counter analysis; format: ADME, cell-based; details: 0.0002 µM
Target sequence in this assay (Q04609 whole entry): as above

[10] = Drug uptake in kidney of CD-1 nude mouse xenografted with PC3-PIP cells at 6 nM to 9 nM, iv measured after 2 mins to 1440 mins using 125I-labelled compound by gamma counter analysis; format: ADME, organism-based; details: in vivo, 0.006 µM
[11] = target: T1, Glutamate carboxypeptidase 2; assay: Inhibition of […] binding to PSMA in human PC3-PIP cells at 0.2 nM incubated for 1 hr; format: cell-based
Target sequence in this assay (Q04609 whole entry, looked up): as the sequence (Q04609 whole entry) above

[12] = target: T1, Glutamate carboxypeptidase 2; assay: Displacement of [125I]MIP-1095 from PSMA in human PC3-PIP cells after 1 hr by gamma counter analysis; format: cell-based
Target sequence in this assay (Q04609 whole entry): as above

[13] = Uptake in kidney of CD-1 nude mouse xenografted with PC3-PIP cells at 6 nM to 9 nM, iv measured at 24 hrs using 125I-labelled compound by gamma counter analysis; details: in vivo, 0.006 µM
[14] = Uptake in kidney of CD-1 nude mouse xenografted with PC3-PIP cells at 6 nM to 9 nM, iv measured at 1 hr using 125I-labelled compound by gamma counter analysis; details: in vivo, 0.006 µM
[15] = Uptake in kidney of CD-1 nude mouse xenografted with PC3-PIP cells at 6 nM to 9 nM, iv measured at 4 hrs using 125I-labelled compound by gamma counter analysis; details: in vivo, 0.006 µM
[16] = Drug uptake in tumor of CD-1 nude mouse xenografted with PC3-PIP cells at 6 nM to 9 nM, iv measured at 24 hrs using 125I-labelled compound by gamma counter analysis; format: ADME, organism-based, Neoplasm; details: in vivo, 0.006 µM
[17] = Drug uptake in tumor of CD-1 nude mouse xenografted with PC3-PIP cells at 6 nM to 9 nM, iv measured at 1 hr using 125I-labelled compound by gamma counter analysis; format: ADME, organism-based, Neoplasm; details: in vivo, 0.006 µM
[18] = Drug uptake in tumor of CD-1 nude mouse xenografted with PC3-PIP cells at 6 nM to 9 nM, iv measured at 4 hrs using 125I-labelled compound by gamma counter analysis; format: ADME, organism-based, Neoplasm; details: in vivo, 0.006 µM
[19] = Drug uptake in liver of CD-1 nude mouse xenografted with PC3-PIP cells at 6 nM to 9 nM, iv measured at 2 mins using 125I-labelled compound by gamma counter analysis; format: ADME, organism-based; details: in vivo, 0.006 µM
[20] = Drug uptake in large intestine of CD-1 nude mouse xenografted with PC3-PIP cells at 6 nM to 9 nM, iv measured at 4 hrs using 125I-labelled compound by gamma counter analysis; format: ADME, organism-based; details: in vivo, 0.006 µM
[21] = Drug uptake in small intestine of CD-1 nude mouse xenografted with PC3-PIP cells at 6 nM to 9 nM, iv measured at 1 hr using 125I-labelled compound by gamma counter analysis; format: ADME, organism-based; details: in vivo, 0.006 µM
[22] = Drug uptake in kidney of CD-1 nude mouse xenografted with PC3-PIP cells at 6 nM to 9 nM, iv measured at 4 hrs using 125I-labelled compound by gamma counter analysis; format: ADME, organism-based; details: in vivo, 0.006 µM
[23] = Drug uptake in kidney of CD-1 nude mouse xenografted with PC3-PIP cells at 6 nM to 9 nM, iv measured at 24 hrs using 125I-labelled compound by gamma counter analysis; format: ADME, organism-based; details: in vivo, 0.006 µM
[24] = Drug uptake in kidney of CD-1 nude mouse xenografted with PC3-PIP cells at 6 nM to 9 nM, iv measured at 1 hr using 125I-labelled compound by gamma counter analysis; format: ADME, organism-based; details: in vivo, 0.006 µM
[25] = Drug uptake in spleen of CD-1 nude mouse xenografted with PC3-PIP cells at 6 nM to 9 nM, iv measured at 4 hrs using 125I-labelled compound by gamma counter analysis; format: ADME, organism-based; details: in vivo, 0.006 µM
[26] = Clearance in tumor of CD-1 nude mouse xenografted with PC3-PIP cells at 6 nM to 9 nM, iv measured at 4 hrs using 125I-labelled compound by gamma counter analysis; format: ADME, organism-based, Neoplasm; details: in vivo, 0.006 µM
[27] = Drug uptake in large intestine of CD-1 nude mouse xenografted with PC3-PIP cells at 6 nM to 9 nM, iv measured at 1 hr using 125I-labelled compound by gamma counter analysis; format: ADME, organism-based; details: in vivo, 0.006 µM

Structure (SMILES): O=C(O)CC[C@H](NC(=O)N[C@@H](CCCCNC(=O)[C@H](Cc1ccccc1)NC(=O)COc1ccc(C[C@H](NC(=O)[C@H](CCC(=O)O)NC(=O)c2ccc(I)cc2)C(=O)O)cc1)C(=O)O)C(=O)O
- inhibition [11]: Active

Structure (SMILES): O=C(O)CC[C@H](NC(=O)N[C@@H](CCCCNC(=O)[C@H](Cc1ccccc1)NC(=O)COc1ccc(C[C@H](NC(=O)[C@H](CCC(=O)O)NC(=O)[C@H](CCC(=O)O)NC(=O)c2ccc([125I])cc2)C(=O)O)cc1)C(=O)O)C(=O)O
- Drug uptake [13]: 136.4 % ID/g
- Drug uptake [1]: Tde
- Drug uptake [2]: 64%
- Drug uptake [14]: 127.8 % ID/g
- Drug uptake [15]: 138.1 % ID/g
- Drug uptake [16]: 11.1 % ID/g
- Drug uptake [17]: 17.2 % ID/g
- Drug uptake [4]: 67 %ID
- Drug uptake [18]: 17.4 % ID/g
- Drug uptake [6]: Not Active
- Drug uptake [8]: 62%
- Drug uptake [9]: 39 %ID
- Drug uptake [10]: Active

Structure (SMILES): O=C(O)CC[C@H](NC(=O)N[C@@H](CCCCNC(=O)[C@H](Cc1ccccc1)NC(=O)[C@H](CCC(=O)O)NC(=O)[C@H](CCC(=O)O)NC(=O)c1ccc([125I])cc1)C(=O)O)C(=O)O
- Drug uptake [1]: Tde
- Drug uptake [2]: 47%
- Drug uptake [22]: 80.3 % ID/g
- Drug uptake [23]: 6.91 % ID/g
- Drug uptake [3]: 0.17 % ID/g
- Drug uptake [16]: 17 % ID/g
- Drug uptake [17]: 18.5 % ID/g
- Drug uptake [4]: 75 %ID
- Drug uptake [18]: 23.1 % ID/g
- Drug uptake [5]: 7.18 % ID/g
- Drug uptake [6]: Not Active
- Drug uptake [7]: 3.64 % ID/g
- Drug uptake [8]: 37%
- Drug uptake [9]: 43 %ID
- Drug uptake [10]: Active
- Drug uptake [24]: 71.8 % ID/g

Structure (SMILES): O=C(O)CC[C@H](NC(=O)N[C@@H](CCCCNC(=O)[C@H](Cc1ccccc1)NC(=O)COc1ccc(C[C@H](NC(=O)[C@H](CCC(=O)O)NC(=O)c2ccc([125I])cc2)C(=O)O)cc1)C(=O)O)C(=O)O
- Drug uptake [1]: Tde
- Drug uptake [2]: 60%
- Drug uptake [22]: 114.7 % ID/g
- Drug uptake [17]: 26.2 % ID/g
- Drug uptake [4]: 76 %ID
- Drug uptake [18]: 14.3 % ID/g
- Drug uptake [6]: Not Active
- Drug uptake [25]: 15.4 % ID/g
- Drug uptake [8]: 58%
- Drug uptake [9]: 49 %ID
- CL [26]: 45%
- Drug uptake [10]: Active
- Drug uptake [24]: 174.6 % ID/g

Structure (SMILES): O=C(O)CC[C@H](NC(=O)N[C@@H](CCCCNC(=O)[C@H](Cc1ccccc1)NC(=O)COc1ccc(C[C@H](NC(=O)CNC(=O)c2ccc(I)cc2)C(=O)O)cc1)C(=O)O)C(=O)O
- IC50 [12]: 1.33 nM
- inhibition [11]: Active

Structure (SMILES): O=C(O)CC[C@H](NC(=O)N[C@@H](CCCCNC(=O)[C@H](Cc1ccccc1)NC(=O)COc1ccc(C[C@H](NC(=O)CNC(=O)c2ccc([125I])cc2)C(=O)O)cc1)C(=O)O)C(=O)O
- Drug uptake [19]: 29.4 % ID/g
- Drug uptake [1]: Tde
- Drug uptake [2]: 55%
- Drug uptake [20]: 9.98 % ID/g
- Drug uptake [4]: 52 %ID
- Drug uptake [27]: 21.6 % ID/g
- Drug uptake [6]: Not Active
- Drug uptake [8]: 51%
- Drug uptake [9]: 36 %ID
- Drug uptake [10]: Not Active

Structure (SMILES): O=C(O)CC[C@H](NC(=O)N[C@@H](CCCCNC(=O)[C@H](Cc1ccccc1)NC(=O)[C@H](CCC(=O)O)NC(=O)[C@H](CCC(=O)O)NC(=O)c1ccc(I)cc1)C(=O)O)C(=O)O
- inhibition [11]: Active

Structure (SMILES): O=C(O)CC[C@H](NC(=O)N[C@@H](CCCCNC(=O)[C@H](Cc1ccccc1)NC(=O)COc1ccc(C[C@H](NC(=O)[C@H](CCC(=O)O)NC(=O)[C@H](CCC(=O)O)NC(=O)c2ccc(I)cc2)C(=O)O)cc1)C(=O)O)C(=O)O
- IC50 [12]: 3.52 nM
- inhibition [11]: Active

Continued, values first:

- Drug uptake [1]: Tde
- Drug uptake [2]: 47%
- Drug uptake [3]: 0.71 % ID/g
- Drug uptake [4]: 53 %ID
- Drug uptake [5]: 10.2 % ID/g
- Drug uptake [6]: Not Active
- Drug uptake [7]: 6.45 % ID/g
- Drug uptake [8]: 38%
- Drug uptake [9]: 40 %ID
- Drug uptake [10]: Active
Structure (SMILES): O=C(O)CC[C@H](NC(=O)N[C@@H](CCCCNC(=O)Nc1ccc([125I])cc1)C(=O)O)C(=O)O

- IC50 [12]: 3 nM
Structure (SMILES): O=C(O)CC[C@H](NC(=O)N[C@@H](CCCCNC(=O)Nc1ccc(I)cc1)C(=O)O)C(=O)O [MIP-1095]

- Drug uptake [19]: 50.6 % ID/g
- Drug uptake [1]: Tde
- Drug uptake [2]: 76%
- Drug uptake [20]: 51.4 % ID/g
- Drug uptake [4]: 60 %ID
- Drug uptake [21]: 49.7 % ID/g
- Drug uptake [6]: Not Active
- Drug uptake [8]: 73%
- Drug uptake [9]: 31 %ID
- Drug uptake [10]: Not Active
Structure (SMILES): O=C(O)CC[C@H](NC(=O)N[C@@H](CCCCNC(=O)[C@H](Cc1ccccc1)NC(=O)COc1ccc(C[C@H](NC(=O)Nc2ccc([125I])cc2)C(=O)O)cc1)C(=O)O)C(=O)O

- inhibition [11]: Active
Structure (SMILES): O=C(O)CC[C@H](NC(=O)N[C@@H](CCCCNC(=O)[C@H](Cc1ccccc1)NC(=O)[C@H](CCC(=O)O)NC(=O)c1ccc(I)cc1)C(=O)O)C(=O)O

- IC50 [12]: 13 nM
- inhibition [11]: Active
Structure (SMILES): O=C(O)CC[C@H](NC(=O)N[C@@H](CCCCNC(=O)[C@H](Cc1ccccc1)NC(=O)COc1ccc(C[C@H](NC(=O)Nc2ccc(I)cc2)C(=O)O)cc1)C(=O)O)C(=O)O

- Drug uptake [1]: Tde
- Drug uptake [2]: 45%
- Drug uptake [22]: 25.4 % ID/g
- Drug uptake [17]: 10.7 % ID/g
- Drug uptake [4]: 76 %ID
- Drug uptake [18]: 5.17 % ID/g
- Drug uptake [6]: Not Active
- Drug uptake [8]: 36%
- Drug uptake [9]: 43 %ID
- Drug uptake [10]: Active
- Drug uptake [24]: 41.4 % ID/g
Structure (SMILES): O=C(O)CC[C@H](NC(=O)N[C@@H](CCCCNC(=O)[C@H](Cc1ccccc1)NC(=O)[C@H](CCC(=O)O)NC(=O)c1ccc([125I])cc1)C(=O)O)C(=O)O
